Data: patent publication US20230139025A1, “ANTIOXIDANT FOR USE IN TREATMENT FOR RIBE” (Institute of Hematology and Blood Diseases Hospital, CAMS & …, priority 2021, published 2023)

How the values were obtained:
[1] = tested on: in vitro bystander human HSPCs; experiment: Transplantation of in vitro antioxidant-treated bystander human CD34+ cells into NOG mice; format: in vivo; conditions: for HPC (CD34+CD38+) engraftment in BM: antioxidant treatment in vitro, FIG. 9C
Description: (A) Collected human CD34^+ cells from FIG. 8(A) were transplanted into NOG mice. Mean human cell engraftment (left) after human CD34^+ cells collected from FIG. 8(A) transplanted into NOG mice and bars represent the fold difference of engraftment levels from each group (right, n = 6 to 8 per group). (B-C) Frequency of human CD34^+CD38^- cells (B) and CD34^+CD38^+ cells (C) in the BM of recipient; (D) Mean engraftment level of human cells in the spleen of recipients; and (E) Number of hematopoietic clones formed by human CD34^+ cells of each group (^∗p < 0.05, ^∗∗p <[…] 0.01, ^∗∗∗p < 0.001). For the in vitro RIBE model, we cocultured CB-CD34^+ cells with 10 Gy irradiated or nonirradiated human BM cells using a transwell system. After 17 hours of coculture, the CD34^+ cells in the insert (in vitro bystander cells) were collected for subsequent experiments (FIG. 2). Female NOG mice were irradiated at a dose of 2.0 Gy one day before transplantation. The homing human CD34^+ cells were transplanted into recipients at a dose of 5,000 cells/mouse intravenously. For serial transplantations, 1×10^7 whole BM cells from each primary recipient were intravenously transplanted into secondary recipient mice that were exposed to sublethal irradiation (2.0 Gy). Next, we asked whether the pharmacological inhibition of ROS elevation could protect human HSPCs from functional degradation. We used three antioxidants: N-acetyl-L-cysteine (NAC), sulforaphane (SF) and resveratrol (Res), to eliminate excessive ROS from bystander human HSPCs in vitro. For the in vitro RIBE, the BM cells were treated with NAC, SF or Res for 30 minutes before irradiation, and the antioxidants continued to exist in the coculture system until the CB CD34^+ cells were collected for analysis and some were transplanted into sublethally irradiated NOG mice intravenously (FIG. 7).

[2] = tested on: in vivo bystander human HSPCs; experiment: In vivo RIBE model with antioxidant treatment, transplantation of homing human CD34+ cells into NOG mice; conditions: FIG. 11C
Protocol: NOG mice were given antioxidants for 7 days before irradiation.
For the in vivo RIBE model, CD34^+ cells purified from human cord blood (CB) were intravenously injected into 10 Gy irradiated (RIBE group) or nonirradiated (Control group) NOD/Shi-scid/IL-2Rγ^null (NOG) mice separately. After 17 hours, homing human CD34^+ cells (in vivo bystander cells) from recipients were individually detected or sorted for subsequent experiments (FIG. 1).
For the in vivo RIBE, the mice were treated with NAC, SF or Res for 7 days. CB CD34^+ cells were injected into nonirradiated or 10 Gy irradiated NOG mice in either the control, RIBE or RIBE with antioxidant treatment groups. After 17 hours, the homing human CD34^+ cells were sorted individually and transplanted into sublethally irradiated NOG mice (FIG. 10).

HSPCs = experiment: ROS levels of HSPCs in cytokine-treated groups; format: cell-based, human
HSPCs (CD34+ cells) = experiment: γ-H2AX protein by Western blot after cytokine addition to in vitro culture system; format: cell-based, human; conditions: cytokine added to in vitro culture system, FIG. 6H
Protocol: (A) Flow cytometric analysis of fold change of ROS levels by DCF-DA staining in human CD34^+ cells of in vitro RIBE model; (B) Western blot verified the expression of related signaling pathway at the protein levels.
For the in vitro RIBE model, we cocultured CB-CD34^+ cells with 10 Gy irradiated or nonirradiated human BM cells using a transwell system. After 17 hours of coculture, the CD34^+ cells in the insert (in vitro bystander cells) were collected for subsequent experiments (FIG. 2).
Cytokines may exert multiple functions involving stress and inflammatory responses, which are also associated with RIBE. We observed several cytokines including IL-1, IL-6, IL-8, TNF-α, etc., were increased after irradiation (FIG. 6F). […] Moreover, we added IL-1α or IL-1ra to the in-vitro culture system and then measured the γ-H2AX protein by Western blot.

Oc1ccc(C=Cc2cc(O)cc(O)c2)cc1 [Res, resveratrol]
myeloid and erythroid engraftment ([1]; antioxidant administration in vitro, BM, vs RIBE group): significantly higher myeloid and erythroid engraftment than the RIBE group | HPC (CD34+CD38+) engraftment in BM [1]: could improve HPC engraftment | HPC (CD34+CD38+) engraftment in BM [2]: could improve HPC engraftment in vivo

C[S+]([O-])CCCCN=C=S (centres unmarked) [SF, sulforaphane]
HPC (CD34+CD38+) engraftment in BM [1]: could improve HPC engraftment

IL-1ra: cytokine added to the in-vitro culture system
ROS levels of HSPCs (HSPCs): did not change | DNA damage of HSPCs (γ-H2AX protein level) (HSPCs (CD34+ cells)): can slightly increase DNA damage of bystander HSPCs

B1: IL-1α: cytokine added to the in-vitro culture system (protein, UniProt P01583 113-271, looked up)
Interleukin-1 alpha: SAPFSFLSNVKYNFMRIIKYEFILNDALNQSIIRANDQYLTAAALHNLDEAVKFDMGAYKSSKDDAKITVILRISKTQLYVTAQDEDQPVLLKEMPEIPKTITGSETNLLFFWETHGTKNYFTSVAHPNLFIATKQDYWVCLAGGPPSITDFQILENQA
ROS levels of HSPCs (HSPCs): did not change | DNA damage of HSPCs (γ-H2AX protein level) (HSPCs (CD34+ cells)): could loosen DNA damage of HSPCs both in the control and RIBE groups
